# Reference: US20230096766A1, “AMINO ACID HAVING FUNCTIONAL GROUP CAPABLE OF INTERMOLECULAR HYDROGEN BONDING, PEPTIDE COMPOUND CONTAINING SAME AND METHOD FOR PRODUCTION THEREOF” (Chugai Seiyaku Kabushiki Kaisha, priority 2018, published 2023)
# *1 amine or outer side, *2 acyl side, *3 side chain or, on linkers, in order; H or OH if unused. Where a SMILES comes first, the peptide text is derived from it. Bridges are numbered along the chain shown (N, C = ends). [ ]: non-standard residue; d: D form. The star is where a group is joined. NMeAbu(4-morpholino) = CN[C@@H](CCN1CCOCC1)C(=O)O; Glu(NHSO2Me) = CS(=O)(=O)NC(=O)CC[C@H](N)C(=O)O; NMePhe(3-Cl) = CN[C@@H](Cc1cccc(Cl)c1)C(=O)O; Tyr(3-F) = N[C@@H](Cc1ccc(O)c(F)c1)C(=O)O; NMehPhe = CN[C@@H](CCc1ccccc1)C(=O)O; X6 = O=C([C@H](CCCCO)N[*:1])[*:2]; NMeF = CN[C@@H](Cc1ccccc1)C(=O)O; NMeGABA = CN(CCCC(=O)[*:2])[*:1]; NMeL = CN[C@@H](CC(C)C)C(=O)O; NMeV = CN[C@H](C(=O)O)C(C)C; NMeAbu = CC[C@H](NC)C(=O)O; NMeA = CN[C@@H](C)C(=O)O; Piperidide = C1CCN(*)CC1; X8 = C1COC[C@@H](C*)N1; Me2NCH2CH2 = CN(C)CC*; NBuGly = CCCCNCC(=O)O; NPrGly = CCCNCC(=O)O; Propyl(3-OH) = OCCC*; Sar = CNCC(=O)O; tBu = CC(C)(C)*
# Assay: in vitro
# Settings: human, Caco-2, Caco-2
row,Compound,Papp [×10⁻⁶ cm/s]
1,CCCCN1CC(=O)N(C)[C@@H](CC(C)C)C(=O)N[C@@H](CC(C)C)C(=O)N(C)[C@@H](Cc2ccccc2)C(=O)N(C)[C@@H](C(C)C)C(=O)N[C@H](C(=O)N2CCCCC2)CC(=O)N[C@H](CC(C)C)C(=O)N(C)[C@@H](Cc2cccc(Cl)c2)C(=O)N[C@@H](CCC(=O)NS(C)(=O)=O)C(=O)N(C)[C@@H](CC(C)C)C(=O)N[C@@H]([C@@H](C)O)C1=O [pd59] ([dL][NMePhe(3-Cl)][Glu(NHSO2Me)][NMeL]T[NBuGly][NMeL]L[NMeF][NMeV]D-Piperidide; lactam N-11),< 0.0088
2,CCCCN1CC(=O)N(C)[C@@H](CCN2CCOCC2)C(=O)N[C@H](C(=O)N2CCCCC2)CC(=O)N(C)[C@@H](C)C(=O)N[C@@H](CC(C)C)C(=O)N(C)[C@@H](CC(C)C)C(=O)N(C)[C@@H](Cc2ccccc2)C(=O)N[C@@H](CC(C)C)C(=O)N(C)[C@@H](Cc2ccccc2)C(=O)N(C)[C@@H](CC(C)C)C(=O)N[C@@H]([C@@H](C)O)C1=O [pd454] ([NMeA]L[NMeL][NMeF]L[NMeF][NMeL]T[NBuGly][NMeAbu(4-morpholino)]D-Piperidide; lactam N-11),1.2
3,CCCN1CC(=O)N(C)[C@@H](CC(C)C)C(=O)N[C@@H](COC(C)(C)C)C(=O)N(C)[C@@H](Cc2ccccc2)C(=O)N(C)[C@@H](C(C)C)C(=O)N[C@H](C(=O)N2CCCCC2)CC(=O)N[C@H](C(C)C)C(=O)N(C)[C@@H](Cc2ccccc2)C(=O)N[C@@H](COCCN(C)C)C(=O)N(C)[C@@H](CC(C)C)C(=O)N[C@@H]([C@@H](C)O)C1=O [pd50] ([dV][NMeF]S(Me2NCH2CH2)[NMeL]T[NPrGly][NMeL]S(tBu)[NMeF][NMeV]D-Piperidide; lactam N-11),0.15

# Same assay, conditions: human, Caco-2, Caco-2 (cm/sec)
row,Compound,Papp [×10⁻⁶ cm/s]
1,CCCN1CC(=O)N(C)[C@@H](Cc2cccc(Cl)c2)C(=O)N(C)[C@@H](CC(C)C)C(=O)N[C@@H](CCCCO)C(=O)N(C)[C@@H](CC(C)C)C(=O)N[C@H](C(=O)N2CCCCC2)CC(=O)N(C)CC(=O)N(C)[C@@H](CCc2ccccc2)C(=O)N[C@@H](C(C)C)C(=O)N(C)[C@@H](CC(C)C)C(=O)N[C@@H]([C@@H](C)O)C1=O [Compound B08] ([Sar][NMehPhe]V[NMeL]T[NPrGly][NMePhe(3-Cl)][NMeL][X6][NMeL]D-Piperidide; lactam N-11),0.15
2,CC[C@H]1C(=O)N[C@@H](CCCCO)C(=O)N(C)[C@@H](CC(C)C)C(=O)N(C)[C@@H](Cc2cccc(Cl)c2)C(=O)N[C@@H](CC(C)C)C(=O)N(C)[C@@H](CCc2ccccc2)C(=O)N(C)[C@@H](CC(C)C)C(=O)N[C@@H]([C@@H](C)O)C(=O)N(C)CC(=O)N(C)[C@@H](CC(C)C)C(=O)N[C@H](C(=O)N2CCCCC2)CC(=O)N1C [Compound B09] ([NMeAbu][X6][NMeL][NMePhe(3-Cl)]L[NMehPhe][NMeL]T[Sar][NMeL]D-Piperidide; lactam N-11),0.31
3,CC[C@H](C)[C@@H]1NC(=O)[C@H](CC(C)C)N(C)C(=O)CCCN(C)C(=O)C[C@@H](C(=O)N2CCCCC2)NC(=O)[C@H](CC(C)C)N(C)C(=O)[C@H](C)N(C)C(=O)[C@H]([C@@H](C)O)NC(=O)[C@H](CC(C)C)N(C)C(=O)[C@H](Cc2ccc(O)c(F)c2)NC(=O)[C@H](CC(C)C)N(C)C(=O)[C@H](Cc2ccccc2)N(C)C1=O [pd119] ([NMeGABA][NMeL]I[NMeF][NMeL][Tyr(3-F)][NMeL]T[NMeA][NMeL]D-Piperidide; lactam N-11),0.16
4,CCCCN1CC(=O)N(C)[C@@H](CC)C(=O)N[C@@H](COC[C@@H]2COCCN2)C(=O)N(C)[C@@H](Cc2ccccc2)C(=O)N(C)[C@@H](CC)C(=O)N[C@H](C(=O)N2CCCCC2)CC(=O)N[C@H](CC(C)C)C(=O)N(C)[C@@H](CC(C)C)C(=O)N[C@@H]([C@@H](C)CC)C(=O)N(C)[C@@H](CC(C)C)C(=O)N[C@@H]([C@@H](C)O)C1=O [AP240] ([dL][NMeL]I[NMeL]T[NBuGly][NMeAbu]S(X8)[NMeF][NMeAbu]D-Piperidide; lactam N-11),0.08
5,CC(C)C[C@@H]1NC(=O)[C@H](Cc2cccc(Cl)c2)N(C)C(=O)[C@H](Cc2ccccc2)N(C)C(=O)[C@H](COCCCO)NC(=O)[C@H](CC(C)C)N(C)C(=O)CCCN(C)C(=O)C[C@@H](C(=O)N2CCCCC2)NC(=O)[C@H](CC(C)C)N(C)C(=O)[C@H](CC(C)C)N(C)C(=O)[C@H]([C@@H](C)O)NC(=O)[C@H](CC(C)C)N(C)C1=O [AP91] ([NMeGABA][NMeL]S(Propyl(3-OH))[NMeF][NMePhe(3-Cl)]L[NMeL]T[NMeL][NMeL]D-Piperidide; lactam N-11),0.14
6,CC(C)C[C@@H]1NC(=O)[C@H](Cc2ccccc2)N(C)C(=O)[C@@H](C(C)C)NC(=O)C[C@@H](C(=O)N2CCCCC2)NC(=O)[C@H](CC(C)C)N(C)C(=O)[C@H](CC(C)C)N(C)C(=O)[C@H](Cc2ccc(O)c(F)c2)NC(=O)[C@H](CC(C)C)N(C)C(=O)CN(C)C(=O)[C@H]([C@@H](C)O)NC(=O)[C@H](CC(C)C)N(C)C1=O [pd128] ([dV][NMeF]L[NMeL]T[Sar][NMeL][Tyr(3-F)][NMeL][NMeL]D-Piperidide; lactam N-11),0.17
